Source: US20080262097A1, “Formulations” (priority 2005, published 2008)
In brackets after ≈: the same amount, converted by molar mass. Where two headings read alike, the source gives them in different places. Each block holds one compound with its values, some of them ahead of it.

How the values were obtained:
P. acnes NCTC 737 [1] = experiment: Supplemented disc diffusion assay (DDA + salt or lipid); assay type: cell-based, Propionibacterium acnes; conditions: 200 μg per disc; for DDA + lipid: agar supplemented with lipid; for DDA + salt: agar supplemented with salt
Procedure: The Propionibacterium spp organisms were cultured and maintained on Wilkins-Chalgren Anaerobe Medium (agar and broth) at pH 6.0; cultures were incubated anaerobically at 37° C. for 72 hours. A sterile paper disc was impregnated with a sample of the test compound and a minimum of 30 minutes allowed for the solvents to evaporate as far as possible. The disc was then placed on an agar plate onto which the test micro-organism had been inoculated. The plate was then incubated under the conditions described above, following which it was examined visually for signs of bacterial growth. If the test compound had antimicrobial activity, a circular zone of no growth would be obtained around the disc. The diameter of this zone of “inhibition” was measured using a ProtoCOL™ automated zone sizer (Synbiosis, Cambridge, UK). In general, a greater diameter and/or area of the zone of inhibition indicates a greater antimicrobial activity in the relevant test compound, although other factors such as test compound mobility through the agar gel may also influence the result. Either the DDA or the SDDA tests may be carried out using an agar gel supplemented with blood, lipid and/or salt to simulate some of the major components present in human skin and to assess whether these substances might reduce the antimicrobial activity observed for the test compounds. Performance under these conditions can provide a more reliable indication of activity on topical application. […] MIC, MBC and DDA assays, as described above, were carried out using BP and a range of different benzoquinones and hydroquinones. Supplemented DDA assays, in the presence of salt and lipid, were also conducted.

P. acnes NCTC 737 [2] = experiment: Disc diffusion assay (DDA); assay type: cell-based, Propionibacterium acnes; conditions: 200 μg per disc
Procedure: (§1) 2. Propionibacterium spp.—the principal propionibacterial strain used in these studies was Propionibacterium acnes NCTC 737.
(§2) The Propionibacterium spp organisms were cultured and maintained on Wilkins-Chalgren Anaerobe Medium (agar and broth) at pH 6.0; cultures were incubated anaerobically at 37° C. for 72 hours.
A sterile paper disc was impregnated with a sample of the test compound and a minimum of 30 minutes allowed for the solvents to evaporate as far as possible. The disc was then placed on an agar plate onto which the test micro-organism had been inoculated. The plate was then incubated under the conditions described above, following which it was examined visually for signs of bacterial growth. […] The diameter of this zone of “inhibition” was measured using a ProtoCOL™ automated zone sizer (Synbiosis, Cambridge, UK).
The area of the zone of inhibition was calculated from the measured zone diameter (D) using the formula π(D/2)^2.
(§3) For all (S)DDA assays, 200 μg of each compound was loaded onto each disc.

P. acnes NCTC 737 [3] = experiment: MIC assay; assay type: cell-based, Propionibacterium acnes
Procedure: 2. Propionibacterium spp.—the principal propionibacterial strain used in these studies was Propionibacterium acnes NCTC 737. This is the type strain of the genus; it is fully susceptible to antibiotics.
as §2
This is a standard international method for quantitatively assessing the antimicrobial activity of a compound in a liquid medium. The method used a 96-well microtitre plate, capable of holding about 200 μl of liquid per well. […] The culture media were as described above for the relevant test organisms.
The wells were inoculated with a liquid suspension of freshly grown micro-organism and incubated under the conditions described above. After incubation, the microtitre plate was examined visually (with the aid of a light box) for cell pellets in and/or opaque wells, which would indicate microbial growth. The MIC value was recorded as the lowest concentration of test compound required to inhibit microbial growth, ie, the lowest concentration for which the liquid in the well remained clear.
The assays were conducted in duplicate and included both negative (culture medium only) and positive (culture medium, diluting solvent and inoculum) controls.

P. acnes NCTC 737 [4] = experiment: Synergy disc diffusion assay (SDDA); assay type: cell-based, Propionibacterium acnes; conditions: for SDDA area increase / SDDA increase: quinone + BP; for SDDA area increase: over larger single-compound zone; for SDDA increase: over larger single-compound zone diameter; for SDDA with BP: quinone combined with BP on one disc, 200 μg of each
Procedure: as §1, §2
This is a variation on the DDA method, in which two compounds are tested together for their combined antimicrobial activity. It provides a qualitative indication as to whether the compounds are likely to interact synergistically.
Two test compounds A and B were placed on a single paper disc and the above described DDA procedure repeated.
Each of the quinones was then subjected, in combination with BP, to the SDDA assay described above.
as §3

S. aureus ATCC 29213 = experiment: MBC assay; assay type: cell-based, Staphylococcus aureus
Procedure: 1. Staphylococcus aureus—the principal staphylococcal test micro-organism used in these studies was Staphylococcus aureus ATCC 29213. This strain is the one recommended for QC/QA purposes in Minimum Inhibitory Concentration (MIC) assays by the US Clinical and Laboratory Standards Institute (formerly the NCCLS), an FDA-recognised body. […] The staphylococci and enterococci were cultured and maintained on Mueller-Hinton Medium (agar and broth) at pH 7.2; they were incubated aerobically at 37° C. for 24 hours. This assay, normally carried out after an MIC assay, determines the minimum concentration of a compound that is lethal to the micro-organism being tested. […] These samples were then individually sub-cultured on non-selective agar medium, under the incubation conditions described above. Following incubation they were examined visually for bacterial growth.

S. aureus ATCC 12604 = experiment: MBC assay; assay type: cell-based; conditions: Staphylococcus aureus, ATCC12604
Procedure: (§4) The staphylococci and enterococci were cultured and maintained on Mueller-Hinton Medium (agar and broth) at pH 7.2; they were incubated aerobically at 37° C. for 24 hours.
(§5) This assay, normally carried out after an MIC assay, determines the minimum concentration of a compound that is lethal to the micro-organism being tested.
(§6) These samples were then individually sub-cultured on non-selective agar medium, under the incubation conditions described above. Following incubation they were examined visually for bacterial growth.

S. aureus ATCC 25923 = experiment: MBC assay; assay type: cell-based; conditions: Staphylococcus aureus, ATCC25923
Procedure: as §4, §5, §6

S. aureus ATCC 12607 = experiment: MBC assay; assay type: cell-based; conditions: Staphylococcus aureus, ATCC12607
Procedure: as §4, §5, §6

[5] = test system: Staphylococcus warneri ATCC 27836; experiment: MBC assay; assay type: cell-based; conditions: ATCC27836
Procedure: as §4, §5, §6

[6] = test system: Staphylococcus hominis ATCC 27844; experiment: MBC assay; assay type: cell-based; conditions: ATCC27844
Procedure: as §4, §5, §6

[7] = test system: Staphylococcus auricularis ATCC 33753; experiment: MBC assay; assay type: cell-based; conditions: ATCC33753
Procedure: as §4, §5, §6

[8] = test system: Staphylococcus xylosus ATCC 29971; experiment: MBC assay; assay type: cell-based; conditions: ATCC29971
Procedure: as §4, §5, §6

[9] = P. acnes NCTC 737, Table 7 (Example 6)
[10] = S. aureus ATCC 29213, Table 1 (Example 1)
[11] = Table 10 (Example 8), zone diameter
[12] = Cutibacterium acnes, NCTC737, P. acnes NCTC 737 (resistance None), Table 9 (Example 8)
[13] = Cutibacterium acnes, NCTC737, P. acnes NCTC 737, Table 7 (Example 6)
[14] = Staphylococcus aureus, ATCC29213, S. aureus ATCC 29213, Table 1 (Example 1), read-out: MBC
[15] = Cutibacterium acnes, NCTC737, P. acnes NCTC 737, Table 7 (Example 6), read-out: MIC

SMILES: Cc1c(O)ccc(O)c1C [2,3-dimethyl-p-hydroquinone]
DDA + lipid (P. acnes NCTC 737 [1]): 13.75 mm
DDA + salt (P. acnes NCTC 737 [1]): 14.38 mm
DDA (P. acnes NCTC 737 [2]; Table 7, zone diameter): 18.75 mm
MIC (P. acnes NCTC 737 [3]; [9]): 7.8 µg/mL (≈ 56.5 µM)
SDDA area increase (P. acnes NCTC 737 [4]): 113.68%
SDDA increase (P. acnes NCTC 737 [4]): 10.63 mm
SDDA with BP (P. acnes NCTC 737 [4]): 33.65 mm
MBC (S. aureus ATCC 29213; [10]): 7.8 µg/mL (≈ 56.5 µM)

SMILES: CC(C)(C)c1cc(O)ccc1O [TBHQ, t-butyl hydroquinone]
DDA + lipid (P. acnes NCTC 737 [1]): 10.37 mm
DDA + salt (P. acnes NCTC 737 [1]): 19.48 mm
DDA (P. acnes NCTC 737 [2]; Table 7, zone diameter): 9.95 mm
DDA (P. acnes NCTC 737 [2]; [11]): 8.65 (±0.31) mm
DDA (P. acnes NCTC 737 [2]; Table 11 (Example 9), mean of three replicates): 15.0 mm
MBC (S. aureus ATCC 12604): 7.8 µg/mL (≈ 46.9 µM)
MBC (S. aureus ATCC 25923): 7.8 µg/mL (≈ 46.9 µM)
MBC (S. aureus ATCC 12607): 3.9 µg/mL (≈ 23.5 µM)
MBC ([5]; Staphylococcus warneri): 7.8 µg/mL (≈ 46.9 µM)
MBC [6]: 3.9 µg/mL (≈ 23.5 µM)
MBC [7]: 1.95 µg/mL (≈ 11.7 µM)
MBC ([8]; Staphylococcus xylosus): 15.6 µg/mL (≈ 94 µM)
MIC (P. acnes NCTC 737 [3]; [12]): 7.8 µg/mL (≈ 46.9 µM)
MIC (P. acnes NCTC 737 [3]; [13]): 7.8 µg/mL (≈ 46.9 µM)
SDDA area increase (P. acnes NCTC 737 [4]): 211.51%
SDDA increase (P. acnes NCTC 737 [4]): 18.55 mm
SDDA with BP (P. acnes NCTC 737 [4]): 42.80 mm
MBC (S. aureus ATCC 29213; Staphylococcus aureus, ATCC29213, S. aureus ATCC 29213, Table 5 (Example 5)): 15.6 µg/mL (≈ 93.9 µM)
MBC (S. aureus ATCC 29213; Staphylococcus aureus, ATCC29213, S. aureus ATCC 29213, Table 1 (Example 1)): 7.8 µg/mL (≈ 46.9 µM)

SMILES: O=C(OOC(=O)c1ccccc1)c1ccccc1 [benzoyl peroxide]
DDA (P. acnes NCTC 737 [2]; Table 7, zone diameter): 24.25 mm
DDA (P. acnes NCTC 737 [2]; [11]): 19.25 (±0.18) mm
MBC (S. aureus ATCC 12604; S. aureus ATCC 12604, read-out: MBC): 250 µg/mL (≈ 1030 µM)
MBC (S. aureus ATCC 25923; S. aureus ATCC 25923, read-out: MBC): 250 µg/mL (≈ 1030 µM)
MBC (S. aureus ATCC 12607): 250 µg/mL (≈ 1030 µM)
MBC ([5]; Staphylococcus warneri ATCC 27836, read-out: MBC): > 250 µg/mL
MBC [6]: 250 µg/mL (≈ 1030 µM)
MBC [7]: 62.5 µg/mL (≈ 258 µM)
MBC ([8]; Staphylococcus xylosus ATCC 29971, read-out: MBC): 250 µg/mL (≈ 1030 µM)
MIC (P. acnes NCTC 737 [3]; [12]): 15.6 µg/mL (≈ 64.4 µM)
MIC (P. acnes NCTC 737 [3]; [13]): 31.2 µg/mL (≈ 129 µM)
MBC (S. aureus ATCC 29213; S. aureus ATCC 29213, Table 5 (Example 5)): 250 µg/mL (≈ 1030 µM)
MBC (S. aureus ATCC 29213; [14]): 250 µg/mL (≈ 1030 µM)

SMILES: O=C1C=CC(=O)C=C1 [p-benzoquinone]
DDA + lipid (P. acnes NCTC 737 [1]): 37.98 mm
DDA + salt (P. acnes NCTC 737 [1]): 31.44 mm
DDA (P. acnes NCTC 737 [2]; Table 7, zone diameter): 24.87 mm
MIC (P. acnes NCTC 737 [3]; [15]): 62.5 µg/mL (≈ 578 µM)
SDDA area increase (P. acnes NCTC 737 [4]): 77.78%
SDDA increase (P. acnes NCTC 737 [4]): 8.29 mm
SDDA with BP (P. acnes NCTC 737 [4]): 33.16 mm

The next lines start with results.

MIC (P. acnes NCTC 737 [3]; [9]): 7.8 µg/mL (≈ 56.5 µM)
SMILES: CCc1cc(O)ccc1O [2-ethyl-p-hydroquinone]
DDA + lipid (P. acnes NCTC 737 [1]): 0.0 mm
DDA + salt (P. acnes NCTC 737 [1]): 9.38 mm
DDA (P. acnes NCTC 737 [2]; Table 7, zone diameter): 9.90 mm
SDDA area increase (P. acnes NCTC 737 [4]): 84.28%
SDDA increase (P. acnes NCTC 737 [4]): 8.23 mm
SDDA with BP (P. acnes NCTC 737 [4]): 31.25 mm
MBC (S. aureus ATCC 29213; [10]): 15.6 µg/mL (≈ 113 µM)

MIC (P. acnes NCTC 737 [3]; [9]): >250 µg/mL
SMILES: Oc1ccc(O)cc1 [p-hydroquinone]
DDA + lipid (P. acnes NCTC 737 [1]): 0.0 mm
DDA + salt (P. acnes NCTC 737 [1]): 0.0 mm
DDA (P. acnes NCTC 737 [2]; Table 7, zone diameter): 0.0 mm
SDDA area increase (P. acnes NCTC 737 [4]): 87.01%
SDDA increase (P. acnes NCTC 737 [4]): 8.91 mm
SDDA with BP (P. acnes NCTC 737 [4]): 33.16 mm
MBC (S. aureus ATCC 29213; [10]): 62.5 µg/mL (≈ 568 µM)

MIC (P. acnes NCTC 737 [3]; [15]): 15.6 µg/mL (≈ 95 µM)
SMILES: CC1=CC(=O)C(C(C)C)=CC1=O [thymoquinone, 2-iso-propyl-5-methyl-p-benzoquinone]
DDA + lipid (P. acnes NCTC 737 [1]): 49.01 mm
DDA + salt (P. acnes NCTC 737 [1]): 46.49 mm
DDA (P. acnes NCTC 737 [2]; Table 7, zone diameter): 27.46 mm
SDDA area increase (P. acnes NCTC 737 [4]): 79.46%
SDDA increase (P. acnes NCTC 737 [4]): 9.33 mm
SDDA with BP (P. acnes NCTC 737 [4]): 36.79 mm
MBC (S. aureus ATCC 29213; [14]): 15.6 µg/mL (≈ 95 µM)
